Laboratory results from ChEMBL document CHEMBL1137911, “Synthesis and evaluation of 4-triazolylflavans as new aromatase inhibitors” (Bioorg Med Chem Lett, 2004).

Experiments:
Aromatase [1] = biological target: T1, Aromatase (Homo sapiens, UniProt P11511); assay: Relative potency for inhibition of aromatase binding compared to aminoglutethimide
T1 sequence (P11511 whole entry): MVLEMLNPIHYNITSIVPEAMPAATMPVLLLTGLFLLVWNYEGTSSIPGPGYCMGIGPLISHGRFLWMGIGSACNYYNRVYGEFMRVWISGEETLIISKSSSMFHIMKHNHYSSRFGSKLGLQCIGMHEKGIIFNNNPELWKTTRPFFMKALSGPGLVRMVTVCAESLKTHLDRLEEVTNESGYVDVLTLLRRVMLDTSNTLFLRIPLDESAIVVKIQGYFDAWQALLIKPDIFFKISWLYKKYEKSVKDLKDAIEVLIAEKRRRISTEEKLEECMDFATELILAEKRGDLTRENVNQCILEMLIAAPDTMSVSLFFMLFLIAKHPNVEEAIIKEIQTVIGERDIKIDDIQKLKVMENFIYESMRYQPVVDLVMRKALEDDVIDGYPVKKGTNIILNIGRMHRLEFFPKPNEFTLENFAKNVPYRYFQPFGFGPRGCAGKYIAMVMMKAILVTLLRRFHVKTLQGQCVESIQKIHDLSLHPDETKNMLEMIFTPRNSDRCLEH

Aromatase [2] = biological target: T1, Aromatase; assay: In vitro inhibition of [1,2,6,7-3H]androstenedione binding to Aromatase of human placental microsomes

Relative Potency (Aromatase [1]) | IC50 (Aromatase [2]) | SMILES
126.8 | 40 nM | Oc1ccc2c(c1)OC(c1ccccc1)CC2n1ccnc1 (stereo not drawn)
3.7 | 1400 nM | COc1ccc2c(c1)OC(c1ccccc1)CC2n1cncn1 (stereo not drawn)
0.16 | 31600 nM | COc1ccc2c(c1)OC(c1ccccc1)CC2n1cnnc1 (stereo not drawn)
12.1 | 430 nM | Oc1ccc2c(c1)OC(c1ccccc1)CC2n1cncn1 (stereo not drawn)
